Test system: normal human keratinocyte/melanocyte cocultures
Test: UV-induced melanogenesis by 14C-thiouracil incorporation related to amount of protein
Type: cell-based
Description: The protoprotective and propigmenting effect of the combination was tested on normal human keratinocyte/melanocyte cocultures according to the method described in patent FR 95/06491, by evaluating the UV-induced melanogenesis. The rate of melanin synthesis is evaluated through the incorporation of C^14-labeled thiouracil. It is related to the amount of protein.
Normal human keratinocytes (NHKs) and normal human melanocytes (NHMs) are cultured from foreskin. The two types of cell are amplified and stored frozen. Eight days before the test, each of the cell types is again placed in culture. The keratinocytes are cultured according to the method described by Rheinwald and Green (Cell (1975) 6, 331-334) on feeder cells (3T3 fibroblasts) in Green 7F growth medium (DMEM/F12, 3:1, 10% fetal calf serum (Gibco), 0.18 mM adenine, 10 ng/ml epidermal growth factor EGF, 0.4 μg/ml hydrocortisone, 5 μg/ml insulin, 10 μM isoproterenol, 5 μg/ml transferrin and 2 nM triiodothyronine). The melanocytes are amplified in M2 medium (Olsson, M. J. et al., Lancet (1992) 340, 981). The media are changed every two days.
3 days before the test, 250 000 normal human keratinocytes and 80 000 normal human melanocytes are mixed and seeded per well of 24-well plates (Costar type) and cultured for three days in the keratinocyte growth medium (Green 7F) without phenol red. During the following four days, the culture medium is replaced daily with UV medium (DMEM/F12, 3:1, without phenol red, 2% defined calf serum (HyClone), 10 ng/ml EGF, 10 ng/ml fibroblast growth factor type β (βFGF)).
The UV-induction of pigmentation is carried out by solar simulated radiation (SSR) using a 1 000 watt Oriel Xenon solar simulator comprising a 280-400 nm dichroic filter (Oriel, model 81035) and a Schott WG 320 filter having a wavelength cut-off of 311 nm (corresponding to a thickness of approximately 1.5 mm).
The cell cultures are irradiated once a day for 4 days in a phosphate buffer solution (PBS).
The propigmenting molecules are brought into contact with the cells in the PBS during the irradiation and added to the culture medium (UV medium) after irradiation.
The extract of Burnet is tested at 0.005%. It is prepared in a stock solution at 0.5% in a solvent (dimethyl sulfoxide, DMSO), which is added at a 1/1 000 dilution to the PBS and to the UV medium. The final concentration of the solvent in the culture medium is therefore 1/1 000.
The extract of Chrysanthemum sinensis obtained according to protocol Nos. 2+4 is tested at 1%.
The tyrosine, which serves as a positive control, is tested at 500 μM.
The Mexoryl SX® is tested at 8%.
After each exposure to UV radiation, the formulations containing the sunscreen are applied, in the proportion of 1.4 mg/cm^2, to a quartz slide on which there is a Transpore® strip, according to a method derived from that used to determine sun protection indices in vitro, described by Diffey and Robson (J Soc Cosmet Chemists (1989) 300, 230-235). The assembly is placed above the cocultures for the duration of the irradiation.
After irradiation, the cells are incubated in the UV medium containing 1 μCi/ml of C^14-labeled thiouracil.
Measurement of Melanogenesis:
The following controls are realized:
control culture: no product tested […]
24 hours after the final UV irradiation, the cells are rinsed in phosphate buffer. The proteins are precipitated with 5% trichloroacetic acid (TCA) and washed in order to remove the free radioactivity. […]

SMILES	% variation in melanin synthesis compared to the control; A = 14CthioU/amount protein (%/control) (SSR irradiation + solvent (DMSO 1/1000), 8% Mexoryl SX formulation on quartz slide above the cocultures, no propigmenting agent) [%]	% variation in melanin synthesis compared to the control; A = 14CthioU/amount protein (%/control) (SSR irradiation once a day for 4 days, 8% Mexoryl SX formulation 1.4 mg/cm2 on quartz slide above the cocultures, no propigmenting agent, no solvent) [%]	% variation in melanin synthesis compared to the control; A = 14CthioU/amount protein (%/control) (SSR irradiation once a day for 4 days, no screening agent, tyrosine 500 μM, extract of Burnet 0.005% (DMSO solvent), extract of Chrysanthemum sinensis 1%) [%]	% variation in melanin synthesis compared to the control; A = 14CthioU/amount protein (%/control) (SSR irradiation screened by 8% Mexoryl SX formulation, in combination with propigmenting agent: tyrosine 500 μM, extract of Burnet 0.005% (DMSO solvent), extract of Chrysanthemum sinensis 1%) [%]	% variation in melanin synthesis compared to the control; A = 14CthioU/amount protein (%/control) (no irradiation, propigmenting agent alone: tyrosine 500 μM, extract of Burnet 0.005% (DMSO solvent 1/1000), extract of Chrysanthemum sinensis 1%) [%]
CC1(C)C2CCC1(CS(=O)(=O)O)C(=O)C2=Cc1ccc(C=C2C(=O)C3(CS(=O)(=O)O)CCC2C3(C)C)cc1 [Mexoryl SX ®]	36	15	–	–	–
N[C@@H](Cc1ccc(O)cc1)C(=O)O [tyrosine]	–	–	382	74	40

Reference: US20040170580A1, “Filtering suntan product” (priority 2001, published 2004)
